# How the values were obtained:
# Format in all cases: in vivo
# [1] = system: Echinochloa crus-galli (ECHCG); test: Post-emergence herbicidal glasshouse test on Echinochloa crus-galli; details: post-emergence; 1000 g/h; evaluated after 13 days
# Outline: (§1)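 Pre-emergence treatment came one day after sowing, post-emergence treatment after eight days' growth; both used 1000 g/h in a 0.5% Tween 20 acetone/water vehicle. Percent damage, scored 1–5, was read 13 days later.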
# Setaria faberi (SETFA) [2] = test: Pre-emergence herbicidal glasshouse test on Setaria faberi; details: pre-emergence; 1000 g/h; evaluated after 13 days
# Outline: as §1
# [3] = system: Amaranthus retoflexus (AMARE); test: Pre-emergence herbicidal glasshouse test on Amaranthus retoflexus; details: pre-emergence; 1000 g/h; evaluated after 13 days
# Outline: as §1
# Solanum nigrum (SOLNI) [4] = test: Post-emergence herbicidal glasshouse test on Solanum nigrum; details: post-emergence; 1000 g/h; evaluated after 13 days
# Outline: as §1
# [5] = system: Ipomoea hederacea (IPOHE); test: Post-emergence herbicidal glasshouse test on Ipomoea hederacea; details: post-emergence; 1000 g/h; evaluated after 13 days
# Outline: as §1
# Setaria faberi (SETFA) [6] = test: Post-emergence herbicidal glasshouse test on Setaria faberi; details: post-emergence; 1000 g/h; evaluated after 13 days
# Outline: as §1
# [7] = system: Echinochloa crus-galli (ECHCG); test: Pre-emergence herbicidal glasshouse test on Echinochloa crus-galli; details: pre-emergence; 1000 g/h; evaluated after 13 days
# Outline: as §1
# Solanum nigrum (SOLNI) [8] = test: Pre-emergence herbicidal glasshouse test on Solanum nigrum; details: pre-emergence; 1000 g/h; evaluated after 13 days
# Outline: as §1
# [9] = system: Amaranthus retoflexus (AMARE); test: Post-emergence herbicidal glasshouse test on Amaranthus retoflexus; details: post-emergence; 1000 g/h; evaluated after 13 days
# Outline: as §1
# [10] = system: Alopecurus myosuroides (ALOMY); test: Post-emergence herbicidal glasshouse test on Alopecurus myosuroides; details: post-emergence; 1000 g/h; evaluated after 13 days
# Outline: as §1
# [11] = system: Alopecurus myosuroides (ALOMY); test: Pre-emergence herbicidal glasshouse test on Alopecurus myosuroides; details: pre-emergence; 1000 g/h; evaluated after 13 days
# Outline: as §1
# [12] = system: Ipomoea hederacea (IPOHE); test: Pre-emergence herbicidal glasshouse test on Ipomoea hederacea; details: pre-emergence; 1000 g/h; evaluated after 13 days
# Outline: as §1
SMILES,POST Application ECHCG herbicidal damage (five point scale) [1],PRE Application SETFA herbicidal damage (five point scale) (Setaria faberi (SETFA) [2]),PRE Application AMARE herbicidal damage (five point scale) [3],POST Application SOLNI herbicidal damage (five point scale) (Solanum nigrum (SOLNI) [4]),POST Application IPOHE herbicidal damage (five point scale) [5],POST Application SETFA herbicidal damage (five point scale) (Setaria faberi (SETFA) [6]),PRE Application ECHCG herbicidal damage (five point scale) [7],PRE Application SOLNI herbicidal damage (five point scale) (Solanum nigrum (SOLNI) [8]),POST Application AMARE herbicidal damage (five point scale) [9],POST Application ALOMY herbicidal damage (five point scale) [10],PRE Application ALOMY herbicidal damage (five point scale) [11],PRE Application IPOHE herbicidal damage (five point scale) [12]
Cn1ncc(-n2ccc(C(F)(F)F)c(-c3cccc(Cl)c3)c2=O)c(O)c1=O [Compound 1.037],4 (4=60-79% damage),4 (4=60-79% damage),5 (5=80-100% damage),5 (5=80-100% damage),4 (4=60-79% damage),4 (4=60-79% damage),5 (5=80-100% damage),5 (5=80-100% damage),5 (5=80-100% damage),4 (4=60-79% damage),4 (4=60-79% damage),1 (1=0-19% damage)
"Cc1cccc(-c2c(C(F)(F)F)ccn(-c3cnn(C)c(=O)c3O)c2=O)c1 [Compound 1.038, 4-hydroxy-2-methyl-5-[3-(m-tolyl)-2-oxo-4-(trifluoromethyl)-1-pyridyl]pyridazin-3-one]",4 (4=60-79% damage),3 (3=40-59% damage),5 (5=80-100% damage),5 (5=80-100% damage),4 (4=60-79% damage),5 (5=80-100% damage),5 (5=80-100% damage),5 (5=80-100% damage),5 (5=80-100% damage),4 (4=60-79% damage),3 (3=40-59% damage),1 (1=0-19% damage)
Cn1ncc(-c2cc3cccnc3nc2C(F)(F)F)c(O)c1=O [Compound 1.039],5 (5=80-100% damage),3 (3=40-59% damage),5 (5=80-100% damage),5 (5=80-100% damage),5 (5=80-100% damage),5 (5=80-100% damage),5 (5=80-100% damage),4 (4=60-79% damage),5 (5=80-100% damage),4 (4=60-79% damage),2 (2=20-39% damage),5 (5=80-100% damage)
CN(Cc1nc(C(F)(F)F)ccc1-c1cnn(C)c(=O)c1O)S(C)(=O)=O [Compound 1.040],5 (5=80-100% damage),5 (5=80-100% damage),5 (5=80-100% damage),5 (5=80-100% damage),5 (5=80-100% damage),5 (5=80-100% damage),5 (5=80-100% damage),5 (5=80-100% damage),5 (5=80-100% damage),4 (4=60-79% damage),5 (5=80-100% damage),4 (4=60-79% damage)
CC[S+]([O-])c1ccccc1-c1cnn(C)c(=O)c1O (stereo not drawn) [Compound 1.041],5 (5=80-100% damage),2 (2=20-39% damage),4 (4=60-79% damage),5 (5=80-100% damage),5 (5=80-100% damage),5 (5=80-100% damage),4 (4=60-79% damage),2 (2=20-39% damage),5 (5=80-100% damage),4 (4=60-79% damage),3 (3=40-59% damage),1 (1=0-19% damage)
CCS(=O)(=O)c1ccccc1-c1cnn(C)c(=O)c1O [Compound 1.042],5 (5=80-100% damage),5 (5=80-100% damage),5 (5=80-100% damage),5 (5=80-100% damage),4 (4=60-79% damage),5 (5=80-100% damage),5 (5=80-100% damage),5 (5=80-100% damage),5 (5=80-100% damage),5 (5=80-100% damage),5 (5=80-100% damage),1 (1=0-19% damage)
CC(C)[S+]([O-])c1ccccc1-c1cnn(C)c(=O)c1O (stereo not drawn) [Compound 1.043],4 (4=60-79% damage),1 (1=0-19% damage),1 (1=0-19% damage),5 (5=80-100% damage),4 (4=60-79% damage),4 (4=60-79% damage),1 (1=0-19% damage),1 (1=0-19% damage),5 (5=80-100% damage),2 (2=20-39% damage),1 (1=0-19% damage),1 (1=0-19% damage)

# — US9693556B2, “Herbicidal pyridazinone derivatives” (SYNGENTA LIMITED, priority 2011, dated 2017)
